Test results as given in US20030157194A1, “Method for treating cellulite” (priority 2002, published 2003).

Legend:
cellulite-affected skin [1] = assay: topical treatment of cellulite-affected skin on thighs and buttocks of female persons by gliding a solid salt block; type: in vivo, human
cellulite-affected skin [2] = assay: topical treatment of cellulite-affected skin on the sides of a test subject by gliding a solid salt block; type: in vivo, human; conditions: person
Text: […] This person may be a afflicted with cellulite on their sides, between their armpits and their waist.
Rather, […] sides are left moistened. Then, […] areas of his sides, by very gently gliding the block in dabbing motions, circular motions, up and down motions, or zigzag motions (the motions being insufficient to cause debridement and abrasion of the affected skin) on the moistened areas for about 15 to about 30 seconds. […]
This once daily application is continued for 5 weeks.

`[Cl-].[Na+]` [NaCl, sodium chloride] was tested, and the “state of cellulite on continued application” value (cellulite-affected skin [1]; female, continued once per day application after 5 weeks) was “remained free of cellulite”, the “state of cellulite at the end of 2 weeks” value (cellulite-affected skin [1]; person, pre-moistened skin, once daily application for about 15 to 30 seconds, end of 2 weeks) was “alleviated” and the “state of cellulite at the end of 5 weeks” value (cellulite-affected skin [1]; person, pre-moistened skin, once daily application, end of 5 weeks) was “completely eliminated”. For the same molecule, the “state of cellulite on continued application” value (cellulite-affected skin [2]; continued once per day application after 5 weeks) was “remain smooth and free of cellulite” and the “state of cellulite at the end of 5 weeks” value (cellulite-affected skin [2]; pre-moistened skin, once daily, end of 5 weeks) was “completely eliminated”.
